Results published in patent US20230114728A1 (Venatorx Pharmaceuticals, Inc., priority 2019, published 2023).
Converted amounts (≈) assume the structure as drawn.

What was measured:
Assay in all cases: Broth microdilution MIC in CAMHB
Type in all cases: cell-based
[1] = tested on: E. coli ATCC 25922; conditions: Escherichia coli, ATCC25922; E. coli ATCC 25922; MHB; read-out: Minimum Inhibitory Concentration, E. coli 25922
Summary of the method: (§1)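 Per CLSI broth microdilution, colonies were grown 3-5 h at 37° C in cation-adjusted Mueller Hinton broth, then diluted to a starting inoculum of 2-8×10^5 CFU/mL against 2-fold serial compound dilutions. Plates were incubated 16-20 h at 37° C, and MIC was read visually as the lowest concentration with no growth.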

[2] = tested on: K. pneumoniae SI-117 producing VIM-1; conditions: Klebsiella pneumoniae, read-out: Minimum Inhibitory Concentration, K. pneumoniae SI-117
Summary of the method: as §1

[3] = tested on: E. coli AG100A; conditions: Escherichia coli, read-out: Minimum Inhibitory Concentration, E. coli AG100A
Summary of the method: as §1

[4] = tested on: E. coli AG100; conditions: Escherichia coli; E. coli AG100 (wild-type parent); MHB; read-out: Minimum Inhibitory Concentration, E. coli AG100
Summary of the method: as §1

[5] = tested on: K. pneumoniae 848844 producing SHV-11 and KPC-2; conditions: Klebsiella pneumoniae, read-out: Minimum Inhibitory Concentration, K. pneumoniae 848844
Summary of the method: as §1

[6] = tested on: K. pneumoniae UMM producing SHV-5 and KPC-2; conditions: Klebsiella pneumoniae, read-out: Minimum Inhibitory Concentration, K. pneumoniae UMM
Summary of the method: as §1

[7] = tested on: E. coli 901C; conditions: Escherichia coli; E. coli 901C (hyper-permeable); MHB; read-out: Minimum Inhibitory Concentration, E. coli 901C
Summary of the method: as §1

[8] = tested on: E. coli D22; conditions: Escherichia coli; E. coli D22 (hyper-permeable); MHB; read-out: Minimum Inhibitory Concentration, E. coli D22
Summary of the method: as §1

[9] = tested on: P. aeruginosa ATCC 35151; conditions: Pseudomonas aeruginosa, ATCC35151; MHB; hyper-permeable strain; read-out: Minimum Inhibitory Concentration, P. aeruginosa ATCC 35151
Summary of the method: as §1

[10] = tested on: P. aeruginosa (ΔmexAB-oprM); conditions: Pseudomonas aeruginosa, read-out: Minimum Inhibitory Concentration, P. aeruginosa ΔmexAB-OprM
Summary of the method: as §1

[11] = tested on: A. baumannii ATCC 19606; conditions: Acinetobacter baumannii, ATCC19606; MHB; read-out: Minimum Inhibitory Concentration, A. baumannii ATCC 19606
Summary of the method: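 Colonies from cation-adjusted Mueller Hinton agar are grown in broth (3-5 h, 37° C), adjusted by OD600, and added at 2-8×10^5 CFU/mL to 2-fold compound dilutions. After 16-20 h at 37° C, the lowest concentration without growth is taken as MIC.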

SMILES | MIC [1] [µg/mL] | MIC [2] [µg/mL] | MIC [3] [µg/mL] | MIC [4] [µg/mL] | MIC [5] [µg/mL] | MIC [6] [µg/mL] | MIC [7] [µg/mL] | MIC [8] [µg/mL] | MIC [9] [µg/mL] | MIC [10] [µg/mL] | MIC [11] [µg/mL]
O=C(NC(C(=O)N[C@H]1Cc2ccc(F)c(C(=O)O)c2OB1O)c1ncc(O)cc1F)c1ccnc(F)c1 (stereo partly drawn) [Example 53, (3R)-7-fluoro-3-(2-(3-fluoro-5-hydroxypyridin-2-yl)-2-(2-fluoroisonicotinamido)acetamido)-2-hydroxy-3,4-dihydro-2H-benzo[e][1,2]oxaborinine-8-carboxylic acid] | > 128 | > 128 | > 128 | > 128 | > 128 | > 128 | 8 to 16 (≈ 15.5 to 31 µM) | > 128 |  |  | 
CCN1CCN(C(=O)NC(C(=O)N[C@H]2Cc3ccc(S)c(C(=O)O)c3OB2O)c2csc(N)n2)C(=O)C1=O (stereo partly drawn) [Example 54, (3R)-3-(2-(2-aminothiazol-4-yl)-2-(4-ethyl-2,3-dioxopiperazine-1-carboxamido)acetamido)-2-hydroxy-7-mercapto-3,4-dihydro-2H-benzo[e][1,2]oxaborinine-8-carboxylic acid] | > 128 | > 128 | > 128 | > 128 | > 128 | > 128 | 0.5 to 1 (≈ 0.889 to 1.78 µM) | 32 to 64 (≈ 56.9 to 114 µM) | 8 to 16 (≈ 14.2 to 28.4 µM) | 32 to 64 (≈ 56.9 to 114 µM) | > 128
CCN1CCN(C(=O)NC(C(=O)N[C@H]2Cc3ccc(SCc4ccc(O)cc4)c(C(=O)O)c3OB2O)c2csc(N)n2)C(=O)C1=O (stereo partly drawn) [Example 55, (3R)-3-(2-(2-aminothiazol-4-yl)-2-(4-ethyl-2,3-dioxopiperazine-1-carboxamido)acetamido)-2-hydroxy-7-((4-hydroxybenzyl)thio)-3,4-dihydro-2H-benzo[e][1,2]oxaborinine-8-carboxylic acid] | 32 to 64 (≈ 47.9 to 95.7 µM) | > 128 | 32 to 64 (≈ 47.9 to 95.7 µM) | > 128 | > 128 | > 128 | 0.5 to 1 (≈ 0.748 to 1.5 µM) | 8 to 16 (≈ 12 to 23.9 µM) | 0.5 to 1 (≈ 0.748 to 1.5 µM) | 32 to 64 (≈ 47.9 to 95.7 µM) | > 128
CCN1CCN(C(=O)NC(C(=O)N[C@H]2Cc3ccc(C=O)c(C(=O)O)c3OB2O)c2csc(N)n2)C(=O)C1=O (stereo partly drawn) [Example 57, (3R)-3-(2-(2-aminothiazol-4-yl)-2-(4-ethyl-2,3-dioxopiperazine-1-carboxamido)acetamido)-7-formyl-2-hydroxy-3,4-dihydro-2H-benzo[e][1,2]oxaborinine-8-carboxylic acid] | 32 to 64 (≈ 57.3 to 115 µM) | > 128 | 32 to 64 (≈ 57.3 to 115 µM) | > 128 | 32 to 64 (≈ 57.3 to 115 µM) | 32 to 64 (≈ 57.3 to 115 µM) | 2 to 4 (≈ 3.58 to 7.16 µM) | 8 to 16 (≈ 14.3 to 28.7 µM) | 2 to 4 (≈ 3.58 to 7.16 µM) | 32 to 64 (≈ 57.3 to 115 µM) | > 128
CCN1CCN(C(=O)NC(C(=O)N[C@H]2Cc3ccc(CO)c(C(=O)O)c3OB2O)c2csc(N)n2)C(O)C1=O (stereo partly drawn) [Example 58, (3R)-3-(2-(2-aminothiazol-4-yl)-2-(4-ethyl-2-hydroxy-3-oxopiperazine-1-carboxamido)acetamido)-2-hydroxy-7-(hydroxymethyl)-3,4-dihydro-2H-benzo[el][1,2]oxaborinine-8-carboxylic acid] | > 128 | > 128 | > 128 | > 128 | > 128 | > 128 | 32 to 64 (≈ 56.9 to 114 µM) | > 128 | 8 to 16 (≈ 14.2 to 28.5 µM) | > 128 | > 128
CCN1CCN(C(=O)NC(C(=O)N[C@H]2Cc3ccc(O[C@@H]4CN[C@H](C(=O)N(C)C)C4)c(C(=O)O)c3OB2O)c2ccccc2)C(=O)C1=O (stereo partly drawn) [Example 59, (3R)-7-(((3S,5S)-5-(dimethylcarbamoyl)pyrrolidin-3-yl)oxy)-3-(2-(4-ethyl-2,3-dioxopiperazine-1-carboxamido)-2-phenylacetamido)-2-hydroxy-3,4-dihydro-2H-benzo[e][1,2]oxaborinine-8-carboxylic acid] | > 128 | > 128 | 32 to 64 (≈ 48.2 to 96.3 µM) | > 128 | > 128 | > 128 | 2 to 4 (≈ 3.01 to 6.02 µM) | 32 to 64 (≈ 48.2 to 96.3 µM) | 0.5 to 1 (≈ 0.752 to 1.5 µM) | 8 to 16 (≈ 12 to 24.1 µM) | > 128
CCN1CCN(C(=O)NC(C(=O)N[C@H]2Cc3ccc(OCCN)c(C(=O)O)c3OB2O)c2ccccc2)C(=O)C1=O (stereo partly drawn) [Example 60, (3R)-7-(2-aminoethoxy)-3-(2-(4-ethyl-2,3-dioxopiperazine-1-carboxamido)-2-phenylacetamido)-2-hydroxy-3,4-dihydro-2H-benzo[e][1,2]oxaborinine-8-carboxylic acid] | > 128 | > 128 | 32 to 64 (≈ 56.4 to 113 µM) | > 128 | > 128 | > 128 | 8 to 16 (≈ 14.1 to 28.2 µM) | 32 to 64 (≈ 56.4 to 113 µM) | 2 to 4 (≈ 3.53 to 7.05 µM) | 32 to 64 (≈ 56.4 to 113 µM) | > 128
